Data on 2 molecules can be found in EPA's ToxRefDB 2.

Series [1] concerns rat. To be noted: Prenatal developmental toxicity study, wistar, Oral, Gavage/Intubation, dose end: 16 GD.
A further series concerns dog. To be noted: Chronic toxicity, beagle, Oral, Feed, dose end: 52 week, group: systemic.
Another series relates to rabbit. The conditions noted are these: Prenatal developmental toxicity study, himalayan, Oral, Gavage/Intubation, dose end: 18 GD, group: maternal.
Series [2] concerns rat. The conditions noted are these: Multigenerational reproductive toxicity study, WIST Han Ibm: WIST ISPF, Oral, Feed, dose end: 2 generation.
Series [3] has as its system rat. To be noted: Sub-acute repeat dose toxicity, Oral, Gavage/Intubation, dose end: 4 day, group: systemic.
For series [4], the system named is rat. The conditions noted are these: Sub-acute repeat dose toxicity, Oral, Gavage/Intubation, dose end: 4 day, group: systemic. The source holds these as a separate data set.
Series [5] deals with rat. The conditions noted are these: Sub-acute repeat dose toxicity, Oral, Gavage/Intubation, dose end: 4 day, group: systemic. This is another data set of the same source.
The test system of series [6] is rat. To be noted: Sub-acute repeat dose toxicity, Oral, Gavage/Intubation, dose end: 4 day, group: systemic. The source holds these as a separate data set.
Setting [7] is: group: developmental, systemic / in life observation / body weight / fetal weight + systemic / in life observation / body weight / offspring (pup) weight gain.
Setting [8] is: group: developmental, systemic / in life observation / body weight / fetal weight + systemic / in life observation / body weight / offspring (pup) weight gain + ….
The mark [9] stands for this setting: group: maternal, systemic / in life observation / body weight / body weight gain + systemic / in life observation / food consumption / food efficiency.
Setting [10] is: group: maternal, systemic / in life observation / body weight / body weight gain + systemic / in life observation / food consumption / food efficiency + ….
Where [11] appears, read: systemic / clinical chemistry / alkaline phosphatase (alp/alk) / alkaline phosphatase (alp/alk) + systemic / organ weight / liver / absolute….
[12] abbreviates: reproductive / reproductive performance / aborted / aborted + systemic / in life observation / body weight / body weight gain + systemic / ….
[13] abbreviates: group: offspring, systemic / in life observation / body weight / offspring (pup) weight + systemic / in life observation / body weight / offspring (pup) ….
[14] abbreviates: group: parental, systemic / in life observation / body weight / body weight + systemic / in life observation / body weight / body weight gain + systemic / ….
[15] abbreviates: systemic / in life observation / body weight / body weight + systemic / in life observation / clinical signs / abnormal respiratory sounds….
The mark [16] stands for this setting: systemic / organ weight / liver / absolute.
The mark [17] stands for this setting: systemic / in life observation / clinical signs / abnormal respiratory sounds + systemic / in life observation / clinical signs / fur (….
Setting [18] is: systemic / in life observation / body weight / body weight + systemic / organ weight / liver / absolute + systemic / in life observation / ….
The mark [19] stands for this setting: systemic / organ weight / liver / absolute + systemic / in life observation / clinical signs / salivation + systemic / pathology microscopic….

Molecules are shown by their SMILES.

As for `CCOC(=O)C1=NN(c2ccc(Cl)cc2Cl)C(C)(C(=O)OCC)C1` (stereo not given) [Mefenpyr-diethyl], the LOAEL was found to be 1000 mg/kg/day in the series on rat [1] (setting [7]); 1000 mg/kg/day with rat [1] (setting [9]); 260 mg/kg/day in the series on dog (setting [11]); 250 mg/kg/day with rabbit (reproductive / reproductive performance / aborted / aborted + reproductive / offspring survival early / live fetuses / live fetuses); 250 mg/kg/day in the series on rat [2] (setting [13]); 250 mg/kg/day in the series with rat [2] (setting [14]). For the same molecule, the NOAEL was below 1000 mg/kg/day with rat [1] (setting [7]); below 1000 mg/kg/day in the series with rat [1] (setting [9]); 51.4 mg/kg/day in the series on dog (setting [11]); 100 mg/kg/day with rabbit (setting [12]); 50 mg/kg/day in the series with rat [2] (setting [13]); 50 mg/kg/day with rat [2] (setting [14]). Further, the LEL in the series on rat [1] (setting [8]) turned out to be 1000 mg/kg/day; in the series on rat [1] (setting [10]), 1000 mg/kg/day; in the series with dog (systemic / organ weight / liver / relative to body weight), 57.6 mg/kg/day; in the series with rabbit (reproductive / reproductive performance / aborted / aborted + reproductive / offspring survival early / live fetuses / live fetuses + …) it was 250 mg/kg/day; in the series on rat [2] (setting [13]) it was 250 mg/kg/day; in the series with rat [2] (setting [14]) it was 250 mg/kg/day. For the same molecule, the NEL is below 1000 mg/kg/day with rat [1] (setting [8]); below 1000 mg/kg/day with rat [1] (setting [10]); 11.1 mg/kg/day in the series with dog (systemic / organ weight / liver / relative to body weight + systemic / clinical chemistry / alkaline phosphatase (alp/alk) / alkaline …); 100 mg/kg/day in the series with rabbit (setting [12]); 50 mg/kg/day in the series on rat [2] (setting [13]); 50 mg/kg/day in the series on rat [2] (setting [14]).

Regarding `CNCc1ccc(S(C)(=O)=O)cc1Oc1ccc2c(c1)CCCC2`, the lowest-observed-adverse-effect level (LOAEL) in the series on rat [3] (setting [15]) was above 500 mg/kg/day; with rat [4] (setting [17]), above 500 mg/kg/day; in the series with rat [5] (setting [18]), above 500 mg/kg/day; with rat [6] (setting [19]), above 100 mg/kg/day. For the same molecule, the NOAEL is at least 500 mg/kg/day in the series with rat [3] (setting [15]), at least 500 mg/kg/day with rat [4] (setting [17]), at least 500 mg/kg/day with rat [5] (setting [18]) and at least 100 mg/kg/day with rat [6] (setting [19]). Also, the LEL in the series on rat [3] (setting [16]) came to 30 mg/kg/day; with rat [4] (systemic / in life observation / clinical signs / salivation) it was 100 mg/kg/day; in the series on rat [5] (setting [16]), 30 mg/kg/day; with rat [6] (setting [16]), 30 mg/kg/day. Also, the NEL was below 30 mg/kg/day in the series with rat [3] (setting [16]), 30 mg/kg/day in the series on rat [4] (setting [17]), below 30 mg/kg/day in the series with rat [5] (setting [16]) and below 30 mg/kg/day in the series with rat [6] (setting [16]).
